Measured values reported in article PMC11945487 (Viruses, 2025).

Experiments:
HEK293 cells = test: MTT cytotoxicity assay; type: cell-based, human; conditions: HEK293, 24 h, 0 to 100 µM
SARS-CoV-2 M^pro = SARS-CoV-2 M^pro (Severe acute respiratory syndrome coronavirus 2, UniProt P0DTD1); type: binding; conditions: modified Stern–Volmer plot
[1] = ref [41]; cited from earlier work

Row | SMILES | cytotoxicity / cell viability (HEK293 cells) | KSV (SARS-CoV-2 M^pro) [M⁻¹] | number of binding sites (SARS-CoV-2 M^pro) | solubility in organic solvents [1]
1 | O=c1c(O)c(-c2ccc(O)c(O)c2)oc2cc(O)cc(O)c12 [Quercetin] | consistent and high cell viability |  |  | 
2 | COc1cc2ccc(=O)oc2cc1O [Scopoletin, 6-methoxy-7-hydrocoumarian] | maintained acceptable cell viability | 932000 | one | dissolves in organic solvents such as methanol and chloroform
